Entries after “also recorded” stand apart in the source; their conditions may differ.
Key:
[1] = In vitro flow-through diffusion cell skin permeation; assay type: in vitro ADME, human; details: for first quantified in the receptor fluid after application: Figure 1A, first 3 h of exposure; for permeability rate J diluted in water compared to neat: aqueous 50:50 versus neat; for time to permeate previously frozen human skin: aqueous PGEs applied
Description: Human abdominal full thickness skin was obtained as surgical waste from the Lausanne University Hospital (CHUV) and the Department of Musculoskeletal Medicine (DAL) Biobank, Switzerland, according to the Swiss ethics in the canton Vaud (CER-VD: Commission cantonal d’éthique de la recherche sur l’être humain, ethical protocol 264/12). The surgeon obtained written consent from the patients before the start of the operation. The collected skin was anonymized, and only sex and age were provided for this study. Human skin was obtained directly after the surgery and immediately dermatomed to a thickness of 800 µm (Acculan®II, B. Braun/Aesculap, Sempach, Switzerland) to account for any potential storage effects on its in vitro mass balance. The experiments were run with triplicate skin samples (n = 3) from three different donors giving a total of nine samples for each experiment. The skin samples used for this study were stored at −20 °C for up to four years. The experiments were performed only when a sufficient number of skin samples was available from three different donors.
The in vitro flow-through diffusion cell experiments were used to assess skin permeation kinetics after neat and aqueous application, separately. The abdominal human frozen skin was thawed for one hour at room temperature and cut into disks (exposed area of 1 cm^2). These were mounted onto the diffusion cells between the donor and the receptor chamber filled with saline water (0.9% NaCl (aq), 8 mL). Four different experimental conditions were used: application of solutions containing either PGEE or PGPE (neat) and application of aqueous solutions of PGEE or PGPE (50:50 v/v mixture). Each experiment was performed with triplicate cells from three different donors ([…] diffusion cells exposed to PGE per experimental condition) and one control cell per skin donor (n = 3 diffusion cells not exposed to PGE). The trans epidermal water loss (TEWL; VapoMeter wireless, Delfin Technologies Ltd., Kuopio, Finland) was measured for each skin disk to assess skin sample integrity. Skin samples with a TEWL greater than 11 g/m^2/h were excluded. TEWL was measured again at the end of each experiment to confirm skin integrity throughout the experiment.
The in vitro flow-through diffusion cell experiments were carried out using a rack-mounted system consisting of nine in-line jacketed flow-through diffusion cells (PermeGear® from SES Analytical System, Bechenheim, Germany). A peristaltic pump (Ismatec IPC-N, IDEX Health and Science GmbH, Wertheim-Mondfeld, Germany) operated at a flow rate of 200 µL/min for the first 180 min to ensure that the transition point—when the glycol ethers reached the receptor fluid—was accurately captured for these rapidly diffusing substances. The pump rate was then adjusted to 40 µL/min for the remaining time until 24 h. These collection times and flow rates were set to achieve steady state. The diffusion cell system was equipped with a magnetic stirrer in each cell to ensure a constant and uniform mixing of the substances in the reservoir fluid. The diffusion cells were kept at 32 °C with a heated water bath (Haake SC 100 Digital Immersion Circulator, Thermo Scientific, Newington, NH, USA). A fraction collector (FC 204, Gilson Inc., Middleton, WI, USA) automatically sampled the reservoir fluid at different time points for 24 h, i.e., at 0.5, 1, 1.5, 2, 2.5, 3, 6, 9, 12, 15, 18, 21, and 24 h. PGPE (>95%) and PGEE (>99%) (Chemic Brunschwig AG, Basel, Switzerland) were applied separately onto the skin samples either neat substances or aqueous solutions (Milli-Q Advantage A10 System, Millipore AG, MerckMillipore, Schaffhouse, Switzerland). We applied 500 µL (aqueous application) and 200 µL (neat application) of them to increase the likelihood of reaching steady state permeation conditions. All collected samples were stored at 4 °C after the experiment. […]

[2] = Workplace scenario: estimated internal dose and blood concentration after dermal exposure; parameters: species or system human; details: 8 h
Protocol: The cumulative amount of PGEE and PGPE in the receptor fluid (µg/cm^2, y-axis) was plotted separately over time (hours, x-axis), and the permeability rate (J), the lag time (Tlag), and the permeability coefficient (Kp) were determined from the generated permeability curve. J (µg/cm^2/h) was calculated as the slope of the steepest linear part of the curve (apparent steady state), and Tlag (h) as its x-axis intercept. Kp (cm/h) was calculated by dividing J with the chemical concentration applied to the skin when diluted in water and with the glycol ether’s density when applied neat. The maximal internal dose in the bloodstream was estimated using the permeability rate obtained for the experiments and calculated as follows:IDmean = J [µg/cm^2/h] × SA [cm^2] × t [h] × P,(1) where IDmean is the mean internal dose of PGEE or PGPE after skin exposure, J is the experimental permeability rate, SA represents the surface area exposed to the solvent, t is the time of exposure, and P represents the average percentage of PGEs in commercialized products. We used the J from the aqueous experiments because PGEs are mostly present in water-based products. The surface area exposed was set to 10.4 cm^2 for the hands alone, and 14.2 cm^2 when including the forearms. The total blood volume used for the blood concentration calculation was 5 L [29]. In Switzerland, paint products on the market for both professional and consumer uses contain, on average, 22.3% of PGEE and/or 5.9% of PGPE [17].
Recreating a workplace scenario, the mean internal dose after one workday for a worker in contact with products containing PGEE or PGPE was estimated based on our results. Mixing tasks are common in companies that use paint products, such as those in the construction and car repair industries. This task usually involves opening containers and mixing large quantities of paint. Workers’ hands, and occasionally forearms, are often contaminated by paint splashes and contact with various painting equipment. Based on our in vitro results and assuming dermal exposure only, after one 8 h workday, with a SA of 10.4 cm^2 and PGEs content of either 22.3% or 5.9%, the mean estimated internal dose for a worker performing a paint mixing task without wearing gloves is 8.3 mg of PGEE (see Equation (1)). This corresponds to a blood concentration of 1.7 mg/L. Under the same conditions, if the worker is exposed to products containing PGPE, the mean estimated internal dose after one workday is 0.9 mg, corresponding to a blood concentration of 0.2 mg/L. The addition of water to the mixture, for example, from perspiration or from the water-based product itself, increases the estimated internal dose to 19.9 mg (3.9 mg/L) for PGEE exposure and 4.1 mg (0.8 mg/L) for PGPE exposure. Some paint products may contain both PGEs mixed with other chemical substances; however, mixtures were not considered in this scenario. Further studies are necessary to investigate the effects of chemical mixtures on glycol ether skin permeation. Furthermore, PGEE and PGPE are volatile organic compounds, so workers can be exposed not only through direct skin contact but also via skin vapor absorption through the skin or inhalation. Therefore, the blood concentrations estimated in our workplace scenario would likely be higher under real working conditions involving all routes of absorption. Since no biological reference values are currently available for these compounds, it is not possible to estimate the potential risks associated with exposure at these blood concentrations. However, due to the high skin permeation of these compounds, workers and consumers must wear appropriate protective equipment to limit their exposure.

[3] = SA 10.4 cm^2, content 22.3% PGEE or 5.9% PGPE, blood volume 5 L, no added water
[4] = SA 10.4 cm^2, content 22.3% PGEE or 5.9% PGPE, dermal only, no added water
[5] = with addition of water to the mixture, SA 10.4 cm^2, 22.3% PGEE or 5.9% PGPE

| first quantified in the receptor fluid after application [1] [min] | time to permeate previously frozen human skin [1] [min] | estimated blood concentration [2, 3] [mg/L] | mean estimated internal dose after one workday [2, 4] [mg] | mean estimated internal dose after one workday [2, 5] [mg] | estimated blood concentration ([2]; with addition of water to the mixture, SA 10.4 cm^2, blood volume 5 L) [mg/L] | Compound | permeability rate J diluted in water compared to neat [1] |
| --- | --- | --- | --- | --- | --- | --- | --- |
| 30 | ≤ 30 | 1.7 | 8.3 | 19.9 | – | CCOCC(C)O (stereo not shown) [PGEE] | double |
| 30 | ≤ 30 | 0.2 | 0.9 | 4.1 | 0.8 | CCCOCC(C)O (stereo not shown) [PGPE, propoxypropanol] | four times greater; also recorded: more than four times quicker |

Source: paper PMC12390126, “Human Skin Permeation of Ethoxy- and Propoxypropanol Commonly Found in Water-Based Products” (Toxics, 2025)
